{"source": "patent US8552052B2", "about": "“Use of diindolylmethane-related indoles for the treatment and prevention of respiratory syncytial virus associated conditions” (BioResponse, L.L.C., priority 2004, dated 2013)", "key": {"[1]": {"tested_on": "Recombinant RSV virus producing green fluorescent protein (gRSV)", "experiment": "Intracellular RSV growth, real-time fluorescence of GFP-producing RSV (gRSV) in A549 cells", "type": "cell-based, Respiratory Syncytial Virus", "settings": "cultured A549 cells; beginning 12 hours after addition of nM DIM (70, 210, 700 nM); FIG. 3", "source_text": "Levels of Intracellular RSV Growth—A real-time fluorescence measurement of live infected cells was utilized to determine the intracellular levels of RSV. Quantitation of real-time RSV growth in live cells was accomplished using a strain of RSV virus which produces florescent protein. Recombinant RSV virus producing green fluorescent protein (GFP) (‘green RSV’, abbreviated as ‘gRSV’) was kindly provided by Dr. Mark Peeples (Columbus Children's Res. Inst., Ohio). A549 cell monolayers were infected with the gRSV in the presence of indicated concentrations of DIM, and were periodically observed by fluorescence microscopy. For quantification, the fluorescence was measured in a standard plate-reader."}, "[2]": {"tested_on": "Human Papilloma Virus (HPV) oncogene altered cervical cancer cell lines", "settings": "cited from earlier work"}, "[3]": {"settings": "water and lipid; cited from earlier work"}, "[4]": {"tested_on": "bRSV", "experiment": "Experimental bovine Respiratory Syncytial Virus (bRSV) infection in calves", "type": "in vivo, Male Jersey calves", "settings": "vs vehicle only treated positive control animals"}, "[5]": {"tested_on": "RSV infected A549 pulmonary epithelial cells", "experiment": "Phosphohistone (H2A.X Phosphorylation) assay of apoptosis in RSV infected A549 cells", "type": "cell-based, human", "settings": "18 hour treatment, FIG. 1", "procedure": "Cell Culture—A549 cells, a tumor cell line with properties of normal airway epithelial cells, were obtained from American Type Culture Collection (ATCC, Manassas, Va.) and incubated at 37° C. in 5% CO2. The cells were cultured in Eagle's minimum essential medium (MEM, Invitrogen) supplemented with 10% fetal bovine serum (HyClone, Logan, Utah) and […] gentamicin. The A549 cells were subcultured by harvesting in 0.12% trypsin no more than 20 times from stock originally designated at pass 70. To minimize effects of exogenous growth factors or cytokines in this system, the supplemented serum concentration was reduced to 0.5% 24 h prior to and during all experiments with RSV infection.\nRSV Virus—RSV, strain A2, was obtained from Advanced Biotechnologies Inc. (Columbia, Md.) and was used directly as supplied for all experiments. The viral preparation was tested to have a TCID50 titer of ˜1×10^9 in Hep-2 cells at 7 days. […]\nCell Viability and Death Assays—Induction of Apoptosis by DIM in RSV infected A549 cell was measured according to a Phosphohistone Assay. […] The detection was done by LumiGLO™ chemiluminescent substrate and the plate was read in a microplate luminometer after 10-20 min. Luminescence indicated the extent of apoptosis in the sample examined."}, "[6]": {"tested_on": "breast cancer cells", "settings": "cited from earlier work"}}, "note": "“Also recorded” adds a separate entry of the source.", "data": [{"smiles": "c1ccc2c(Cc3c[nH]c4ccccc34)c[nH]c2c1", "note": "[DIM, 3,3′-diindolylmethane]", "values": [{"measurement": "intracellular RSV activity (growth)", "setting": "[1]", "result": "reduced intracellular RSV growth; also recorded: significantly reduced"}, {"measurement": "induction of apoptosis", "setting": "[2]; HPV oncogene altered cervical cancer cell lines", "result": "specifically induce apoptosis"}, {"measurement": "induction of markers of apoptosis compared with I3C", "setting": "[2]; cell culture", "result": "more active than I3C"}, {"measurement": "solubility", "setting": "[3]", "result": "low solubility"}, {"measurement": "evidence of active bRSV infection", "setting": "[4]", "result": "less evidence of active bRSV infection"}, {"measurement": "cells undergoing apoptosis", "setting": "[5]; DIM 70, 210, 700 nM, LY294002 2 and 5 μM", "result": "accelerated apopotosis in RSV infected cells; also recorded: significant, dose-related increase in cells undergoing apoptosis"}, {"measurement": "Promotion of apoptosis by DIM compared with LY294002", "setting": "[5]; nM DIM", "result": "more potent than that seen with LY294002"}, {"measurement": "estrogenic activity", "setting": "[6]", "result": "estrogenic"}]}]}
